Measurements reported in patent publication US11419869B2, “Dosage forms and regimens for amino acid compounds” (Pliant Therapeutics, Inc., priority 2019, dated 2022).

Molecular target: recombinant human integrin αvβ6 (Homo sapiens (Human), UniProt P06756+P18564)
Experiment: Solid Phase Integrin αvβ6 Binding Assay (Examples B1, B2)
Details: TGFβ1 LAP ligand, values given in four ranges, read-out: αvβ6 Inhibition IC50 (nM)-range
Outline: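 Plates coated with recombinant human αvβ6 (2 μg/mL) compete compound against recombinant TGFβ1 LAP (0.67 μg/mL) in TBS binding buffer with 0.5 mM MnCl2, 2 h at 25 °C. Bound LAP detected with biotin-anti-hLAP and peroxidase-streptavidin; IC50 by four-parameter logistic regression.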

Sequence of recombinant human integrin αvβ6 (P06756 31-992): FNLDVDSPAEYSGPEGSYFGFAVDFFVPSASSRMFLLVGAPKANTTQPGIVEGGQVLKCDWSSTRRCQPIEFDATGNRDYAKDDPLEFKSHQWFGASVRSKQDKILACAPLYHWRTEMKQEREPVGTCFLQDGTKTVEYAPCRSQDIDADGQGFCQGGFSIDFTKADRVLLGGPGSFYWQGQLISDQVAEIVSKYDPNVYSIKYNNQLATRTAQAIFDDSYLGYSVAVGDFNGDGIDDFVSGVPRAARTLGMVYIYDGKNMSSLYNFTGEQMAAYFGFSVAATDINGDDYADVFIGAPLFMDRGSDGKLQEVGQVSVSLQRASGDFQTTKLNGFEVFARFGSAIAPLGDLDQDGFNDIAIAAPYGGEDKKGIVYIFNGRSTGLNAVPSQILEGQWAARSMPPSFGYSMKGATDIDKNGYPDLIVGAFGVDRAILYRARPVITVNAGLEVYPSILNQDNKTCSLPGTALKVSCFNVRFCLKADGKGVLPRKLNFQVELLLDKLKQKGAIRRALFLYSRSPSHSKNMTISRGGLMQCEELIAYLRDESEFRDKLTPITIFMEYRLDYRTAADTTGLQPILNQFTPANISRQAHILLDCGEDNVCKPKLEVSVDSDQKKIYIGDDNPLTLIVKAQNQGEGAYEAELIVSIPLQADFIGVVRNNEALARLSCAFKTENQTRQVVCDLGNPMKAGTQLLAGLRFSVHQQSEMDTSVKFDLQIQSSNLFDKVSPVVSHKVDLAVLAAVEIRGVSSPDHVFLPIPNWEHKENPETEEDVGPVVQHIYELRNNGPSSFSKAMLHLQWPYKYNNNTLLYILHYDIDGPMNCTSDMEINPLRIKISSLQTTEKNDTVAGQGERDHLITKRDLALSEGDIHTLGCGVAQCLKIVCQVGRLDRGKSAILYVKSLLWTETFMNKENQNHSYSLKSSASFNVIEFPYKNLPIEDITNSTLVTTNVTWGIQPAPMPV
Sequence of recombinant human integrin αvβ6 (P18564 22-707): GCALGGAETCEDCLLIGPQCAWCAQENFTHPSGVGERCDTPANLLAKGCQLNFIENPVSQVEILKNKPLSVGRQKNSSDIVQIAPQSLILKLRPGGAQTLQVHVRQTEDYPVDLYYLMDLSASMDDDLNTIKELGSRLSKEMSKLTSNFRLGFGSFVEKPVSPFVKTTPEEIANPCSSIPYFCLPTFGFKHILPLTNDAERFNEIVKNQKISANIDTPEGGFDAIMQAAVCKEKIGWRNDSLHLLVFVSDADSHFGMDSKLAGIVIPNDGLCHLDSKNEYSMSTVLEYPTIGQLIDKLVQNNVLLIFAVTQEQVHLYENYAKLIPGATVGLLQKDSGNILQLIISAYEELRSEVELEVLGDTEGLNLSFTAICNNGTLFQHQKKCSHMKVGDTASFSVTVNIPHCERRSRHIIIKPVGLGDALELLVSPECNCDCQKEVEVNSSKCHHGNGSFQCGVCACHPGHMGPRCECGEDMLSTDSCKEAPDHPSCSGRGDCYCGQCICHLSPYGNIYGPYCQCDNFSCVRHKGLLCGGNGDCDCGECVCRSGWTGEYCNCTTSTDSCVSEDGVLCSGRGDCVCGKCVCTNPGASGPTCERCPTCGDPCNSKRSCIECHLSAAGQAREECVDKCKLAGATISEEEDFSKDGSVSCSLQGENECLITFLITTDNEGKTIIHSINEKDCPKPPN

IC50	Structure (SMILES)
< 50 nM	COCCN(CCCCc1ccc2c(n1)NCCC2)CC[C@H](Nc1ncnc2c(F)cccc12)C(=O)O [Compound 20, (S)-2-((8-fluoroquinazolin-4-yl)amino)-4-((2-methoxyethyl) (4-(5,6,7,8-tetrahydro-1,8-naphthyridin-2-yl)butyl)amino) butanoic acid]
> 1000 nM	O=C(O)[C@H](CCN(CCCCc1ccc2c(n1)NCCC2)CC(F)F)Nc1ncc(C2CC2)cn1 [Compound 146, (S)-2-((5-cyclopropylpyrimidin-2-yl)amino)-4-((2,2-difluoroethyl) (4-(5,6,7,8-tetrahydro-1,8-naphthyridin-2-yl)butyl)amino) butanoic acid]
< 50 nM	CN(C)C(=O)CN(CCCCc1ccc2c(n1)NCCC2)CC[C@H](Nc1ccnc(C(F)(F)F)n1)C(=O)O [Compound 145, (S)-4-((2-(dimethylamino)-2-oxoethyl) (4-(5,6,7,8-tetrahydro-1,8-naphthyridin-2-yl)butyl)amino)-2-((2-(trifluoromethyl)pyrimidin-4-yl)amino) butanoic acid]
< 50 nM	CCOCCN(CCCCc1ccc2c(n1)NCCC2)CC[C@H](Nc1ncnc2ccccc12)C(=O)O [Compound 55, (S)-4-((2-ethoxyethyl) (4-(5,6,7,8-tetrahydro-1,8-naphthyridin-2-yl)butyl)amino)-2-(quinazolin-4-ylamino) butanoic acid]
< 50 nM	Cc1nc(N[C@@H](CCN(CCCCc2ccc3c(n2)NCCC3)CCOc2cccnc2C)C(=O)O)c2ccc(F)cc2n1 [Compound 53, (S)-2-((7-fluoro-2-methylquinazolin-4-yl)amino)-4-((2-((2-methylpyridin-3-yl)oxy)ethyl) (4-(5,6,7,8-tetrahydro-1,8-naphthyridin-2-yl)butyl)amino) butanoic acid]
< 50 nM	O=C(O)[C@H](CCN(CCCCc1ccc2c(n1)NCCC2)CCOCC(F)(F)F)Nc1ncnc2ccccc12 [Compound 39, (S)-2-(quinazolin-4-ylamino)-4-((4-(5,6,7,8-tetrahydro-1,8-naphthyridin-2-yl)butyl) (2-(2,2,2-trifluoroethoxy)ethyl)amino) butanoic acid]
< 50 nM	Cc1ccc(OCCN(CCCCc2ccc3c(n2)NCCC3)CC[C@H](Nc2ncnc3ccccc23)C(=O)O)cn1 [Compound 59, (S)-4-((2-((6-methylpyridin-3-yl)oxy)ethyl) (4-(5,6,7,8-tetrahydro-1,8-naphthyridin-2-yl)butyl)amino)-2-(quinazolin-4-ylamino) butanoic acid]
< 50 nM	Cc1ncccc1OCCN(CCCCc1ccc2c(n1)NCCC2)CC[C@H](Nc1ncnc2cccnc12)C(=O)O [Compound 54, (S)-4-((2-((2-methylpyridin-3-yl)oxy)ethyl) (4-(5,6,7,8-tetrahydro-1,8-naphthyridin-2-yl)butyl)amino)-2-(pyrido[3,2-d]pyrimidin-4-ylamino) butanoic acid]
> 1000 nM	O=C(O)[C@H](CCN(CCCCc1ccc2c(n1)NCCC2)CC(F)F)Nc1ncncc1-c1ccccc1 [Compound 119, (S)-4-((2,2-difluoroethyl) (4-(5,6,7,8-tetrahydro-1,8-naphthyridin-2-yl)butyl)amino)-2-((5-phenylpyrimidin-4-yl)amino) butanoic acid]
> 1000 nM	CS(=O)(=O)CCN(CCCCc1ccc2c(n1)NCCC2)CC[C@H](Nc1ncc(C(F)(F)F)cn1)C(=O)O [Compound 102, (S)-4-((2-(methylsulfonyl)ethyl) (4-(5,6,7,8-tetrahydro-1,8-naphthyridin-2-yl)butyl)amino)-2-((5-(trifluoromethyl)pyrimidin-2-yl)amino) butanoic acid]
< 50 nM	COCCN(CCCCc1ccc2c(n1)NCCC2)CC[C@H](Nc1nccnc1C#N)C(=O)O [Compound 67, (S)-2-((3-cyanopyrazin-2-yl)amino)-4-((2-methoxyethyl) (4-(5,6,7,8-tetrahydro-1,8-naphthyridin-2-yl)butyl)amino) butanoic acid]
< 50 nM	O=C(O)[C@H](CCN(CCCCc1ccc2c(n1)NCCC2)CCOC(F)F)Nc1ncnc2ccccc12 [Compound 35, (S)-4-((2-(difluoromethoxy)ethyl) (4-(5,6,7,8-tetrahydro-1,8-naphthyridin-2-yl)butyl)amino)-2-(quinazolin-4-ylamino) butanoic acid]
< 50 nM	COC[C@@H](F)CN(CCCCc1ccc2c(n1)NCCC2)CC[C@H](Nc1nc(C)nc2cc(F)ccc12)C(=O)O [Compound 32, (S)-2-((7-fluoro-2-methylquinazolin-4-yl)amino)-4-(((S)-2-fluoro-3-methoxypropyl) (4-(5,6,7,8-tetrahydro-1,8-naphthyridin-2-yl)butyl)amino) butanoic acid]
< 50 nM	CO[C@H](C)CN(CCCCc1ccc2c(n1)NCCC2)CC[C@H](Nc1nc(C)nc2cc(F)ccc12)C(=O)O [Compound 65, (S)-2-((7-fluoro-2-methylquinazolin-4-yl)amino)-4-(((R)-2-methoxypropyl) (4-(5,6,7,8-tetrahydro-1,8-naphthyridin-2-yl)butyl)amino) butanoic acid]
> 1000 nM	O=C(O)[C@H](CCN(CCCCc1ccc2c(n1)NCCC2)CC(F)F)Nc1ncc(F)cn1 [Compound 121, (S)-4-((2,2-difluoroethyl) (4-(5,6,7,8-tetrahydro-1,8-naphthyridin-2-yl)butyl)amino)-2-((5-fluoropyrimidin-2-yl)amino) butanoic acid]
< 50 nM	O=C(O)[C@H](CCN(CCCCc1ccc2c(n1)NCCC2)CCOc1cc(F)cc(F)c1)Nc1ncnc2ccccc12 [Compound 47, (S)-4-((2-(3,5-difluorophenoxy)ethyl) (4-(5,6,7,8-tetrahydro-1,8-naphthyridin-2-yl)butyl)amino)-2-(quinazolin-4-ylamino) butanoic acid]
< 50 nM	O=C(O)[C@H](CCN(CCCCc1ccc2c(n1)NCCC2)CCOc1ccccc1)Nc1nc(-c2cccnc2)nc2ccccc12 [Compound 94, (S)-4-((2-phenoxyethyl) (4-(5,6,7,8-tetrahydro-1,8-naphthyridin-2-yl)butyl)amino)-2-((2-(pyridin-3-yl)quinazolin-4-yl)amino) butanoic acid]
< 50 nM	O=C(O)[C@H](CCN(CCCCc1ccc2c(n1)NCCC2)CCOCC(F)F)Nc1ncnc2ccccc12 [Compound 50, (S)-4-((2-(2,2-difluoroethoxy)ethyl) (4-(5,6,7,8-tetrahydro-1,8-naphthyridin-2-yl)butyl)amino)-2-(quinazolin-4-ylamino) butanoic acid]
< 50 nM	CO[C@H](C)CN(CCCCc1ccc2c(n1)NCCC2)CC[C@H](Nc1ccnc(C(F)(F)F)n1)C(=O)O [Compound 72, (S)-4-(((R)-2-methoxypropyl) (4-(5,6,7,8-tetrahydro-1,8-naphthyridin-2-yl)butyl)amino)-2-((2-(trifluoromethyl)pyrimidin-4-yl)amino) butanoic acid]
< 50 nM	O=C(O)[C@H](CCN(CCCCc1ccc2c(n1)NCCC2)CCOc1ccccc1)Nc1ncc(C(F)(F)F)cn1 [Compound 89, (S)-4-((2-phenoxyethyl) (4-(5,6,7,8-tetrahydro-1,8-naphthyridin-2-yl)butyl)amino)-2-((5-(trifluoromethyl)pyrimidin-2-yl)amino) butanoic acid]
< 50 nM	N#Cc1cnc(N[C@@H](CCN(CCCCc2ccc3c(n2)NCCC3)CCOc2ccccc2)C(=O)O)nc1 [Compound 111, (S)-2-((5-cyanopyrimidin-2-yl)amino)-4-((2-phenoxyethyl) (4-(5,6,7,8-tetrahydro-1,8-naphthyridin-2-yl)butyl)amino) butanoic acid]
< 50 nM	O=C(O)[C@H](CCN(CCCCc1ccc2c(n1)NCCC2)CCOc1ccccc1)Nc1ccnc(C(F)(F)F)n1 [Compound 92, (S)-4-((2-phenoxyethyl) (4-(5,6,7,8-tetrahydro-1,8-naphthyridin-2-yl)butyl)amino)-2-((2-(trifluoromethyl)pyrimidin-4-yl)amino) butanoic acid]
< 50 nM	CO[C@H](C)CN(CCCCc1ccc2c(n1)NCCC2)CC[C@H](Nc1nc(C)nc2ccccc12)C(=O)O [Compound 66, (S)-4-(((R)-2-methoxypropyl) (4-(5,6,7,8-tetrahydro-1,8-naphthyridin-2-yl)butyl)amino)-2-((2-methylquinazolin-4-yl)amino) butanoic acid]
< 50 nM	Cc1ncccc1OCCN(CCCCc1ccc2c(n1)NCCC2)CC[C@H](Nc1ncnc2ccccc12)C(=O)O [Compound 52, (S)-4-((2-((2-methylpyridin-3-yl)oxy)ethyl) (4-(5,6,7,8-tetrahydro-1,8-naphthyridin-2-yl)butyl)amino)-2-(quinazolin-4-ylamino) butanoic acid]
< 50 nM	CO[C@H](C)CN(CCCCc1ccc2c(n1)NCCC2)CC[C@H](Nc1ncc(C2CC2)cn1)C(=O)O [Compound 124, (S)-2-((5-cyclopropylpyrimidin-2-yl)amino)-4-(((R)-2-methoxypropyl) (4-(5,6,7,8-tetrahydro-1,8-naphthyridin-2-yl)butyl)amino) butanoic acid]
> 1000 nM	COCCN(CCCCc1ccc2c(n1)NCCC2)CC[C@H](Nc1nccc2ccccc12)C(=O)O [Compound 34, (S)-2-(isoquinolin-1-ylamino)-4-((2-methoxyethyl) (4-(5,6,7,8-tetrahydro-1,8-naphthyridin-2-yl)butyl)amino) butanoic acid]
> 1000 nM	O=C(O)[C@H](CCN(CCCCc1ccc2c(n1)NCCC2)CC(F)F)Nc1ccnc(C(F)(F)F)n1 [Compound 97, (S)-4-((2,2-difluoroethyl) (4-(5,6,7,8-tetrahydro-1,8-naphthyridin-2-yl)butyl)amino)-2-((2-(trifluoromethyl)pyrimidin-4-yl)amino) butanoic acid]
> 1000 nM	N#Cc1cnc(N[C@@H](CCN(CCCCc2ccc3c(n2)NCCC3)CC(F)F)C(=O)O)nc1 [Compound 118, (S)-2-((5-cyanopyrimidin-2-yl)amino)-4-((2,2-difluoroethyl) (4-(5,6,7,8-tetrahydro-1,8-naphthyridin-2-yl)butyl)amino) butanoic acid]
